Here are results for one molecule from patent publication US20090062122A1, “Cotton Growth Regulator” (FMC Corporation, priority 2006, published 2009).

This assay deals with cotton, variety D&PL 555. The assay is described as follows: % defoliation of cotton plants, field trial. The format is in vivo. The method, then:
The trial was performed on cotton, variety D&PL 555. The formulated test compounds were diluted to the appropriate concentrations with water to which a crop oil concentrate (1% to 2% v/v) or a non-ionic surfactant (0.25% v/v) was added. The application of the test composition as a cotton plant growth regulator was performed using pressurized, over-the-top spray equipment consisting of a research scale boom sprayer. Deposit of the test composition was primarily to the top of the cotton plants, minimizing spray deposition to lower branches, leaves and fruit. The finished spray volume was 10 gallons per acre, with sprayer nozzle design, orientation and nozzle pressures chosen to prevent spray drift. Applications were made at first sign of cotton boll opening and at 15%, 20% and 40% open bolls.
The experimental design used randomized plots with 1 to 4 treatment rates of test composition and from 1 to 10 replications depending on the test (sees tables below). The size of each experimental plot was about 15 m^2. Testing was performed in Texas, North Carolina, Mississippi and Georgia.
Percent desiccation, percent defoliation, percent terminal control and percent open bolls were evaluated at 7 and 14 days after application (DAA) of the test composition. Inspection of cotton plants for insect control of armyworm larvae was performed at 2 DAA and insect damage to bolls was performed at the time of harvest
Defoliation refers to removal of leaves. Percent defoliation rating approximates the proportion of leaves of all sizes shed per 100 leaves present prior to application of the cotton growth regulator compound. An evaluation of the foliage in the untreated check plots was first undertaken. Then the test plots were individually evaluated. The percent of leaves dropped by the plants in the treated plot was determined using observations within the plot and comparisons to foliage in the untreated plot.
The results, shown as the mean of the indicated number of replications, were compared with results observed in the same trials with an untreated control.

Turning to `CCOC(=O)C(Cl)Cc1cc(-n2nc(C)n(C(F)F)c2=O)c(F)cc1Cl` (centres unmarked) [carfentrazone-ethyl, ethyl 2-chloro-3-[2-chloro-5-(4-difluoromethyl-3-methyl-5-oxo-4,5-dihydro-[1,2,4]-triazol-1-yl)-4-fluorophenyl]propionate], the “% Defoliation” value is 28% (15% open boll application, 0.004 lb ai/a, 14 DAA, 10 replicates); 33% (15% open boll application, 0.006 lb ai/a, 14 DAA, 10 replicates); 39% (15% open boll application, 0.008 lb ai/a, 14 DAA, 10 replicates); 41% (15% open boll application, 0.01 lb ai/a, 14 DAA, 10 replicates); 9% (20% open boll application, 0.002 lb ai/a, 7 DAA, 3 replicates); 17% (20% open boll application, 0.002 lb ai/a, 14 DAA, 3 replicates). Besides, the “% Defoliation” value is, setting by setting: (20% open boll application, 0.004 lb ai/a, 7 DAA, 3 replicates) 25%; (20% open boll application, 0.004 lb ai/a, 14 DAA, 3 replicates) 38%; (20% open boll application, 0.006 lb ai/a, 7 DAA, 3 replicates) 22%; (20% open boll application, 0.006 lb ai/a, 14 DAA, 3 replicates) 34%; (20% open boll application, 0.008 lb ai/a, 7 DAA, 3 replicates) 24%; (20% open boll application, 0.008 lb ai/a, 14 DAA, 3 replicates) 36%. The “% Defoliation” value (40% open boll application, 0.004 lb ai/a, 7 DAA, 1 replicate) is reported as 61%; the “% Defoliation” value (40% open boll application, 0.006 lb ai/a, 7 DAA, 1 replicate) was 58%; the “% Defoliation” value (40% open boll application, 0.008 lb ai/a, 7 DAA, 1 replicate) came out at 67%; the “% Defoliation” value (first open boll application, 0.002 lb ai/a, 7 DAA, 4 replicates) is recorded as 6%; the “% Defoliation” value (first open boll application, 0.002 lb ai/a, 14 DAA, 4 replicates) amounted to 15%; the “% Defoliation” value (first open boll application, 0.004 lb ai/a, 7 DAA, 4 replicates) amounted to 12%. Moreover, the “% Defoliation” value runs as follows: (first open boll application, 0.004 lb ai/a, 14 DAA, 4 replicates) 25%; (first open boll application, 0.006 lb ai/a, 7 DAA, 4 replicates) 13%; (first open boll application, 0.006 lb ai/a, 14 DAA, 4 replicates) 28%; (first open boll application, 0.008 lb ai/a, 7 DAA, 4 replicates) 12%; (first open boll application, 0.008 lb ai/a, 14 DAA, 4 replicates) 23%.
